Blank lines part the entries; values can stand above or below the compound they belong to.
Columns and labels:
Plasma [1] = test: Plasma concentration in Sprague-Dawley rat assessed as ((R)-6-(5-chloropyridin-2-yl)-3-(4-(3-hydroxypyrrolidin-1-yl)-3-methoxyphenyl)pyrrolo[1,2-f][1,2,4]triazin-4(3H)-one level at 10 mg/kg, po qd at 8 hrs; assay type: ADME, organism-based; conditions: in vivo
Brain [2] = test: Drug concentration in Sprague-Dawley rat brain assessed as ((R)-6-(5-chloropyridin-2-yl)-3-(4-(3-hydroxypyrrolidin-1-yl)-3-methoxyphenyl)pyrrolo[1,2-f][1,2,4]triazin-4(3H)-one level at 10 mg/kg, po qd at 8 hrs; assay type: ADME, organism-based; conditions: in vivo, read-out: Drug uptake
Nucleic Acid [3] = test: Ratio of drug level in Sprague-Dawley rat brain to plasma assessed as ((R)-6-(5-chloropyridin-2-yl)-3-(4-(3-hydroxypyrrolidin-1-yl)-3-methoxyphenyl)pyrrolo[1,2-f][1,2,4]triazin-4(3H)-one level at 10 mg/kg, po qd; assay type: ADME, organism-based
Brain [4] = test: Drug concentration in Sprague-Dawley rat brain assessed as (S)-6-(5-chloropyridin-2-yl)-3-(4-(3-(ethylsulfonyl)-2-hydroxypropoxy)-3-methoxyphenyl)pyrrolo[1,2-f][1,2,4]triazin-4(3H)-one level at 10 mg/kg, po qd at 8 hrs; assay type: ADME, organism-based; conditions: in vivo, read-out: Drug uptake
Nucleic Acid [5] = test: Ratio of drug level in Sprague-Dawley rat brain to plasma assessed as (S)-6-(5-chloropyridin-2-yl)-3-(4-(3-(ethylsulfonyl)-2-hydroxypropoxy)-3-methoxyphenyl)pyrrolo[1,2-f][1,2,4]triazin-4(3H)-one level at 10 mg/kg, po qd; assay type: ADME, organism-based
Plasma [6] = test: Plasma concentration in Sprague-Dawley rat assessed as (S)-6-(5-chloropyridin-2-yl)-3-(4-(3-(ethylsulfonyl)-2-hydroxypropoxy)-3-methoxyphenyl)pyrrolo[1,2-f][1,2,4]triazin-4(3H)-one level at 10 mg/kg, po qd at 8 hrs; assay type: ADME, organism-based; conditions: in vivo
Rattus norvegicus [7] = test: Antiobesity activity in Sprague-Dawley rat assessed as body weight reduction at 10 mg/kg, po qd after 4 days relative to control; assay type: functional; conditions: 96 h
[8] = Ratio of free drug level in brain of Sprague-Dawley rat assessed as 6-(4-chlorophenyl)-3-(4-(2-cyclopropyl-2-hydroxyethoxy)-3-methoxyphenyl)pyrrolo[1,2-f][1,2,4]triazin-4(3H)-one level at 10 mg/kg, po to Ki for rat MCHR1; assay type: ADME, organism-based; conditions: in vivo
Brain [9] = test: Free drug level in Sprague-Dawley rat brain assessed as 6-(4-chlorophenyl)-3-(4-(2-cyclopropyl-2-hydroxyethoxy)-3-methoxyphenyl)pyrrolo[1,2-f][1,2,4]triazin-4(3H)-one level at 30 mg/kg, po qd at 20 hrs; assay type: ADME, organism-based; conditions: in vivo
Nucleic Acid [10] = test: Ratio of drug level in Sprague-Dawley rat brain to plasma assessed as 6-(4-chlorophenyl)-3-(4-(2-cyclopropyl-2-hydroxyethoxy)-3-methoxyphenyl)pyrrolo[1,2-f][1,2,4]triazin-4(3H)-one level at 10 mg/kg, po qd; assay type: ADME, organism-based
[11] = Ratio of free drug level in brain of Sprague-Dawley rat assessed as 6-(4-chlorophenyl)-3-(4-(2-cyclopropyl-2-hydroxyethoxy)-3-methoxyphenyl)pyrrolo[1,2-f][1,2,4]triazin-4(3H)-one level at 3 mg/kg, po to Ki for rat MCHR1; assay type: ADME, organism-based; conditions: in vivo
[12] = Ratio of free drug level in brain of Sprague-Dawley rat assessed as 6-(4-chlorophenyl)-3-(4-(2-cyclopropyl-2-hydroxyethoxy)-3-methoxyphenyl)pyrrolo[1,2-f][1,2,4]triazin-4(3H)-one level at 30 mg/kg, po to Ki for rat MCHR1; assay type: ADME, organism-based; conditions: in vivo
Rattus norvegicus [13] = test: Antiobesity activity in Sprague-Dawley rat assessed as body weight reduction at 30 mg/kg, po qd after 4 days relative to control; assay type: functional; conditions: 96 h
Brain [14] = test: Free drug level in Sprague-Dawley rat brain assessed as 6-(4-chlorophenyl)-3-(4-(2-cyclopropyl-2-hydroxyethoxy)-3-methoxyphenyl)pyrrolo[1,2-f][1,2,4]triazin-4(3H)-one level at 10 mg/kg, po qd at 20 hrs; assay type: ADME, organism-based; conditions: in vivo
Brain [15] = test: Drug concentration in Sprague-Dawley rat brain assessed as 6-(4-chlorophenyl)-3-(4-(2-cyclopropyl-2-hydroxyethoxy)-3-methoxyphenyl)pyrrolo[1,2-f][1,2,4]triazin-4(3H)-one level at 3 mg/kg, po qd at 20 hrs; assay type: ADME, organism-based; conditions: in vivo, read-out: Drug uptake
Brain [16] = test: Drug concentration in Sprague-Dawley rat brain assessed as 6-(4-chlorophenyl)-3-(4-(2-cyclopropyl-2-hydroxyethoxy)-3-methoxyphenyl)pyrrolo[1,2-f][1,2,4]triazin-4(3H)-one level at 10 mg/kg, po qd at 20 hrs; assay type: ADME, organism-based; conditions: in vivo, read-out: Drug uptake
Brain [17] = test: Drug concentration in Sprague-Dawley rat brain assessed as 6-(4-chlorophenyl)-3-(4-(2-cyclopropyl-2-hydroxyethoxy)-3-methoxyphenyl)pyrrolo[1,2-f][1,2,4]triazin-4(3H)-one level at 30 mg/kg, po qd at 20 hrs; assay type: ADME, organism-based; conditions: in vivo, read-out: Drug uptake
Plasma [18] = test: Fraction unbound in Sprague-Dawley rat plasma assessed as 6-(4-chlorophenyl)-3-(4-(2-cyclopropyl-2-hydroxyethoxy)-3-methoxyphenyl)pyrrolo[1,2-f][1,2,4]triazin-4(3H)-one level; assay type: ADME, cell-free
Rattus norvegicus [19] = test: Antiobesity activity in Sprague-Dawley rat assessed as body weight reduction at 3 mg/kg, po qd after 4 days relative to control; assay type: functional; conditions: 96 h
Plasma [20] = test: Plasma concentration in Sprague-Dawley rat assessed as 6-(4-chlorophenyl)-3-(4-(2-cyclopropyl-2-hydroxyethoxy)-3-methoxyphenyl)pyrrolo[1,2-f][1,2,4]triazin-4(3H)-one level at 10 mg/kg, po qd at 8 hrs; assay type: ADME, organism-based; conditions: in vivo
Brain [21] = test: Drug concentration in Sprague-Dawley rat brain assessed as 6-(4-chlorophenyl)-3-(4-(2-cyclopropyl-2-hydroxyethoxy)-3-methoxyphenyl)pyrrolo[1,2-f][1,2,4]triazin-4(3H)-one level at 10 mg/kg, po qd at 8 hrs; assay type: ADME, organism-based; conditions: in vivo, read-out: Drug uptake
Brain [22] = test: Free drug level in Sprague-Dawley rat brain assessed as 6-(4-chlorophenyl)-3-(4-(2-cyclopropyl-2-hydroxyethoxy)-3-methoxyphenyl)pyrrolo[1,2-f][1,2,4]triazin-4(3H)-one level at 3 mg/kg, po qd at 20 hrs; assay type: ADME, organism-based; conditions: in vivo
Nucleic Acid [23] = test: Ratio of drug level in Sprague-Dawley rat brain to plasma assessed as (S)-6-(5-chloropyrimidin-2-yl)-3-(4-(3-(ethylsulfonyl)-2-hydroxypropoxy)-3-methoxyphenyl)pyrrolo[1,2-f][1,2,4]triazin-4(3H)-one level at 10 mg/kg, po qd; assay type: ADME, organism-based
Brain [24] = test: Drug concentration in Sprague-Dawley rat brain assessed as (S)-6-(5-chloropyrimidin-2-yl)-3-(4-(3-(ethylsulfonyl)-2-hydroxypropoxy)-3-methoxyphenyl)pyrrolo[1,2-f][1,2,4]triazin-4(3H)-one level at 10 mg/kg, po qd at 8 hrs; assay type: ADME, organism-based; conditions: in vivo, read-out: Drug uptake
Plasma [25] = test: Plasma concentration in Sprague-Dawley rat assessed as (S)-6-(5-chloropyrimidin-2-yl)-3-(4-(3-(ethylsulfonyl)-2-hydroxypropoxy)-3-methoxyphenyl)pyrrolo[1,2-f][1,2,4]triazin-4(3H)-one level at 10 mg/kg, po qd at 8 hrs; assay type: ADME, organism-based; conditions: in vivo
Nucleic Acid [26] = test: Ratio of drug level in Sprague-Dawley rat brain to plasma assessed as 6-(5-chloropyrimidin-2-yl)-3-(4-(2-hydroxy-2-methylpropoxy)-3-methoxyphenyl)pyrrolo[1,2-f][1,2,4]triazin-4(3H)-one level at 5 mg/kg, po qd; assay type: ADME, organism-based
Brain [27] = test: Drug concentration in Sprague-Dawley rat brain assessed as 6-(5-chloropyrimidin-2-yl)-3-(4-(2-hydroxy-2-methylpropoxy)-3-methoxyphenyl)pyrrolo[1,2-f][1,2,4]triazin-4(3H)-one level at 5 mg/kg, po qd at 8 hrs; assay type: ADME, organism-based; conditions: in vivo, read-out: Drug uptake
Plasma [28] = test: Plasma concentration in Sprague-Dawley rat assessed as 6-(5-chloropyrimidin-2-yl)-3-(4-(2-hydroxy-2-methylpropoxy)-3-methoxyphenyl)pyrrolo[1,2-f][1,2,4]triazin-4(3H)-one level at 5 mg/kg, po qd at 8 hrs; assay type: ADME, organism-based; conditions: in vivo
Brain [29] = test: Drug concentration in Sprague-Dawley rat brain assessed as 6-(5-chloropyrimidin-2-yl)-3-(4-((3,3-difluoro-1-hydroxycyclobutyl)methoxy)-3-methoxyphenyl)pyrrolo[1,2-f][1,2,4]triazin-4(3H)-one level at 10 mg/kg, po qd at 8 hrs; assay type: ADME, organism-based; conditions: in vivo, read-out: Drug uptake
Plasma [30] = test: Plasma concentration in Sprague-Dawley rat assessed as 6-(5-chloropyrimidin-2-yl)-3-(4-((3,3-difluoro-1-hydroxycyclobutyl)methoxy)-3-methoxyphenyl)pyrrolo[1,2-f][1,2,4]triazin-4(3H)-one level at 10 mg/kg, po qd at 8 hrs; assay type: ADME, organism-based; conditions: in vivo
Nucleic Acid [31] = test: Ratio of drug level in Sprague-Dawley rat brain to plasma assessed as 6-(5-chloropyrimidin-2-yl)-3-(4-((3,3-difluoro-1-hydroxycyclobutyl)methoxy)-3-methoxyphenyl)pyrrolo[1,2-f][1,2,4]triazin-4(3H)-one level at 10 mg/kg, po qd; assay type: ADME, organism-based

concentration (Plasma [1]): 4.59 µM | concentration (Brain [2]): 0.664 µM | BPR (Nucleic Acid [3]): 0.1
SMILES: COc1cc(-n2cnn3cc(-c4ccc(Cl)cn4)cc3c2=O)ccc1N1CC[C@@H](OC(=O)[C@@H](N)C(C)C)C1

concentration (Brain [4]): 0.401 µM | BPR (Nucleic Acid [5]): 0.03 | concentration (Plasma [6]): 15.6 µM
SMILES: CCS(=O)(=O)C[C@H](COc1ccc(-n2cnn3cc(-c4ccc(Cl)cn4)cc3c2=O)cc1OC)OC(=O)CN

Ratio [8]: 8.6 | Drug uptake(free) (Brain [9]): 44 nM | BPR (Nucleic Acid [10]): 3 | Ratio [11]: 3.6 | Ratio [12]: 16 | Drug uptake(free) (Brain [14]): 24 nM | concentration (Brain [15]): 3.42 µM | concentration (Brain [16]): 7.98 µM | concentration (Brain [17]): 14.8 µM | Fu (Plasma [18]): 0.3% | concentration (Plasma [20]): 1.25 µM | concentration (Brain [21]): 3.74 µM | Drug uptake(free) (Brain [22]): 10 nM
SMILES: COc1cc(-n2cnn3cc(-c4ccc(Cl)cc4)cc3c2=O)ccc1OCC(OC(=O)[C@@H](N)C(C)C)C1CC1 (stereo partly specified)
inhibition in vivo at 10 mg/kg (Rattus norvegicus [7]): 0% | inhibition in vivo at 30 mg/kg (Rattus norvegicus [13]): 2.5% | inhibition in vivo at 3 mg/kg (Rattus norvegicus [19]): 0%

BPR (Nucleic Acid [23]): 0.03 | concentration (Brain [24]): 0.125 µM | concentration (Plasma [25]): 3.96 µM
SMILES: CCS(=O)(=O)C[C@H](COc1ccc(-n2cnn3cc(-c4ncc(Cl)cn4)cc3c2=O)cc1OC)OC(=O)CN

BPR (Nucleic Acid [26]): 0.5 | concentration (Brain [27]): 1.43 µM | concentration (Plasma [28]): 2.71 µM
SMILES: COc1cc(-n2cnn3cc(-c4ncc(Cl)cn4)cc3c2=O)ccc1OCC(C)(C)OC(=O)CN

concentration (Brain [29]): 0.805 µM | concentration (Plasma [30]): 1.13 µM | BPR (Nucleic Acid [31]): 0.7
SMILES: COc1cc(-n2cnn3cc(-c4ncc(Cl)cn4)cc3c2=O)ccc1OCC1(OC(=O)CN)CC(F)(F)C1

— ChEMBL document CHEMBL3616440, “Non-basic azolotriazinone MCHR1 antagonists for the treatment of obesity: An empirical brain-exposures-driven candidate selection for in vivo efficacy studies” (Bioorg Med Chem Lett, 2015)
